# Experimental data from patent US5470873A, “Diabetes prevention and treatment using gamma-pyrones” (University Technologies International, Inc., priority 1994, dated 1995).
# “And” between values parts separate entries of the source, which are not always exact repeats. Equal entries are not always repeated. “Also recorded” adds a separate entry of the source.
# Tests used:
# [1] = Prevention of clinical diabetes (glycosuria) in NOD mice; format: in vivo; settings: observed to 35 weeks, incl. 15 weeks after cessation of treatment
# Method: NOD mice were dosed with maltol to evaluate its effect on the pathogenesis of type I diabetes. Mice received 5 mg maltol/mouse every other day from age 2 weeks until they were 20 weeks old. Maltol extracted from ginseng as described in Example 2 was used for the first 10 weeks, then maltol purchased from Sigma Co., St. Louis, MO was used thereafter. The mice were kept until they were 35 weeks old. Urine glucose was measured at 3-day intervals from 10 to 35 weeks of age. Urinary glucose and ketone levels were determined using Diastix and Ketostix reagent slips (Miles, Ontario, Canada). Individual mice were classified as being diabetic on the basis of positive glycosuria^38. […] In contrast, 78% of age-matched control mice (22 mice) spontaneously developed autoimmune diabetes. At 35 weeks of age, fasting (8 hours of fasting) and non-fasting blood glucose levels were measured. Blood was obtained from the retro-orbital venous plexus of fasting and nonfasting NOD mice. Glucose levels were measured enzymatically by the glucose oxidase method with o-dianisidine dihydrochloride as the reactive dye ^39-41 . The mean nonfasting blood glucose level of 35 ICR mice (nondiabetic control mice; NOD mice were derived from ICR mice) was 149±27 mg/dl. Any non-fasting mouse with a blood glucose level greater than 230 mg/dl (3 SD above the mean) was scored as diabetic. The mean fasting blood glucose level of 38 ICR mice was 137±28 mg/dl. Any fasting mouse with a blood glucose level greater than 221 mg/dl (3 SD above the mean) was scored as diabetic.
# pancreatic islets = test: Histologic changes of pancreatic islets (hematoxylin and eosin); format: in vivo, NOD mice; design: key to Diabetes: "+" indicates "yes"; "-" indicates "no"
# Text: Maltol-treated and untreated NOD mice were sacrificed and 25% of each pancreas was fixed in 6% Formalin. Paraffin-embedded sections were stained with hematoxylin and eosin and examined under an Olympus light microscope ^49. To see whether there are any histological differences between the pancreatic islets of DPD-treated and untreated NOD mice, the pancreatic islets of 35 week old mice were examined with the light microscope after staining with hematoxylin and eosin. […] The rest of their islets were rated as having either severe (22%), moderate (27%), mild (25%) or no (6%) insulitis. […] In addition, there were histopathological changes in their pancreatic islets that were rated as moderate (22% of examined islets), mild (30%) or as having no insulitis (15%).
# pancreatic beta cells = test: Destruction of pancreatic beta cells detected by fluorescein labelled anti-insulin antibody; format: in vivo, NOD mice; design: key to Diabetes: "+" indicates "yes"; "-" indicates "no"
# Method: Fluorescein isothiocyanate-labelled anti-insulin antibody was prepared as described previously 45. Briefly, gamma globulin that was prepared by immunizing guinea pigs with glutaraldehyde polymerized porcine insulin and purified by Sephadex G-200 chromatography was purchased from Index Corp., Glenwood, Ill, USA. This material was labelled with FITC. Unconjugated FITC was removed by dialysis against 0.01M PBS (pH 7.5) and by gel filtration through a Sephadex G-25. The labelled gamma globulin was subsequently absorbed with acetone-treated mouse liver powder to eliminate nonspecific fluorescence. Pancreatic sections (from 25% of each pancreas) prepared from maltol-treated and untreated NOD mice were stained with FITC-labelled anti-insulin antibody and examined under a fluorescent microscope as described elsewhere 47.48. Briefly, pancreatic sections on the slides were flooded with FITC-labelled anti-insulin antibody and incubated in a humidity chamber overnight at 4° C. in the dark. The slides were then washed in three changes of cold PBS for a total of 20 min to remove any unattached antibody, mounted with Elvanol and observed with an Olympus fluorescence microscope ^45. As it is difficult to determine whether the lymphocytes observed in the pancreatic islets are contributing to beta cell destruction, another method was used to determine whether beta cells from maltol-treated or untreated NOD mice were destroyed or not. Sections of pancreatic islets were stained with a fluorescein-labelled anti-insulin antibody and the number of insulin-containing beta cells in the islets was estimated.
# [2] = individual DPD-treated non-diabetic NOD mice (animal 1-5), 35 weeks
# [3] = 30% to 69% of beta cell destruction, individual DPD-treated NOD mice (animal 1-5)
# [4] = less than 30% of beta cell destruction, individual DPD-treated NOD mice (animal 1-5)
# [5] = no destruction of beta cells, individual DPD-treated NOD mice (animal 1-5)
# [6] = over 70% of beta cell destruction, individual DPD-treated NOD mice (animal 1-5)
smiles,measurement,setting,value
"Cc1occc(=O)c1O [DPD, maltol]",Prevention / recurrence of clinical diabetes (in words),[1],no recurrence of the disease; also recorded: prevented clinical diabetes completely; also recorded: prevents the onset of clinical diabetes
same,Diabetes,"pancreatic islets; Table 2, individual DPD-treated NOD mice",-
same,"Mild histopathological changes, share of examined islets",pancreatic islets; group of DPD-treated NOD mice,30%
same,"Moderate histopathological changes, share of examined islets",pancreatic islets; group of DPD-treated NOD mice,22%
same,"No insulitis, share of examined islets",pancreatic islets; group of DPD-treated NOD mice,15%
same,"Severe insulitis, share of examined islets","pancreatic islets; group of DPD-treated NOD mice, untreated diabetic 35%",about 19%
same,"Severe beta cell necrosis, share of examined islets","pancreatic islets; group of DPD-treated NOD mice, untreated diabetic 64%",approximately 14%
same,"Beta Cell Necrosis, islets affected / islets examined",pancreatic islets; [2],5/31 and 5/32 and 3/28 and 4/32
same,"Beta Cell Necrosis, percent of islets",pancreatic islets; [2],16% and 11% and 13%
same,"Intact Islet, islets / islets examined",pancreatic islets; [2],4/31 and 5/32 and 4/28
same,"Intact Islet, percent of islets",pancreatic islets; [2],19% and 15% and 14% and 13%
same,"Mild Insulitis, islets affected / islets examined",pancreatic islets; [2],9/31 and 8/32 and 11/28 and 10/31 and 9/32
same,"Mild Insulitis, percent of islets",pancreatic islets; [2],29% and 25% and 39% and 33% and 28%
same,"Moderate Insulitis, islets affected / islets examined",pancreatic islets; [2],7/31 and 8/32 and 5/28 and 6/31
same,"Moderate Insulitis, percent of islets",pancreatic islets; [2],23% and 25% and 18% and 19%
same,"Severe Insulitis, islets affected / islets examined",pancreatic islets; [2],6/31 and 6/32 and 5/28
same,"Severe Insulitis, percent of islets",pancreatic islets; [2],19% and 18%
same,"Moderate Destruction of beta cells, islets / islets examined",pancreatic beta cells; [3],4/16 and 5/17 and 3/18 and 4/19
same,"Moderate Destruction of beta cells, percent of islets",pancreatic beta cells; [3],25% and 29% and 17% and 21%
same,Diabetes,"pancreatic beta cells; Table 3, individual DPD-treated NOD mice",-
same,Destruction of pancreatic beta cells (in words),"pancreatic beta cells; compared to untreated, diabetic NOD mice",significantly lower
same,"Mild destruction, share of examined islets",pancreatic beta cells; group of DPD-treated NOD mice,45%
same,"Moderate destruction, share of examined islets",pancreatic beta cells; group of DPD-treated NOD mice,23%
same,"No destruction, share of examined islets",pancreatic beta cells; group of DPD-treated NOD mice,12%
same,"Severe destruction, share of examined islets",pancreatic beta cells; group of DPD-treated NOD mice,20%
same,"Mild Destruction of beta cells, islets / islets examined",pancreatic beta cells; [4],7/16 and 7/17 and 9/18 and 9/19
same,"Mild Destruction of beta cells, percent of islets",pancreatic beta cells; [4],43% and 41% and 50% and 47%
same,"Intact, islets / islets examined",pancreatic beta cells; [5],2/16 and 2/17 and 2/18 and 2/19
same,"Intact, percent of islets",pancreatic beta cells; [5],13% and 12% and 11%
same,"Severe Destruction of beta cells, islets / islets examined",pancreatic beta cells; [6],3/16 and 3/17 and 4/18 and 4/19
same,"Severe Destruction of beta cells, percent of islets",pancreatic beta cells; [6],19% and 18% and 22% and 21%
